ChEMBL document CHEMBL1201862, “PubChem BioAssay data set” (2004)
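Dose response: 5 concentrations. Exposure: 48 h. Format: 96-well plates. Endpoint: linear interpolation; highest concentration if not reached. GI50: concentration for 50% inhibition of growth.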 The source made the active and inactive calls. Rule as the data show it: active = GI50 up to about 1.1 µM and inactive = higher.

Tests used:
Assay in all cases: DTP human tumour cell line panel, 48 h
A498 = tested on: A498
BT-549 = tested on: BT-549
COLO 205 = tested on: COLO 205
DU-145 = tested on: DU-145
HCC 2998 = tested on: HCC 2998
HCT-116 = tested on: HCT-116
HCT-15 = tested on: HCT-15
HOP-62 = tested on: HOP-62
LOX IMVI = tested on: LOX IMVI
MCF7 = tested on: MCF7
MDA-N = tested on: MDA-N
MOLT-4 = tested on: MOLT-4
Malme-3M = tested on: Malme-3M
NCI-H522 = tested on: NCI-H522
OVCAR-3 = tested on: OVCAR-3
OVCAR-5 = tested on: OVCAR-5
SN12C = tested on: SN12C
SR = tested on: SR
SF-295 = tested on: SF-295
HOP-92 = tested on: HOP-92

`O=C1c2ccccc2C(=O)c2c(NCC(O)CO)ccc(NCC(O)CO)c21` (configuration not stated) was tested, and the GI50 (A498) was > 100 µM (inactive), the GI50 (BT-549) was 75.7 µM (inactive) and the GI50 (COLO 205) was 37.2 µM (inactive). The GI50 (DU-145) was 38.6 µM (inactive), the GI50 (HCC 2998) was 72.6 µM (inactive) and the GI50 (HCT-116) was 67 µM (inactive). For the same molecule, the GI50 (HCT-15) was 43.7 µM, the GI50 (HOP-62) was 61.1 µM (inactive) and the GI50 (LOX IMVI) was 28.3 µM (inactive). The GI50 (MCF7) was 21.3 µM (inactive), the GI50 (MDA-N) was 61.2 µM (inactive) and the GI50 (MOLT-4) was 32.2 µM (inactive). For the same molecule, the GI50 (Malme-3M) was 91.2 µM (inactive), the GI50 (NCI-H522) was 67.3 µM (inactive) and the GI50 (OVCAR-3) was 79.6 µM (inactive). The GI50 (OVCAR-5) was > 100 µM (inactive), the GI50 (SN12C) was 71.3 µM (inactive) and the GI50 (SR) was 61.4 µM (inactive).

`COc1nc(C#CC(C)(C)C)nc(OC)n1` was tested, and the GI50 (A498) was 41.9 µM (inactive), the GI50 (BT-549) was 31.9 µM (inactive) and the GI50 (COLO 205) was 31.8 µM (inactive). For the same molecule, the GI50 (DU-145) was 23.6 µM (inactive), the GI50 (HCT-116) was 15.7 µM (inactive) and the GI50 (HCT-15) was 20.8 µM. For the same molecule, the GI50 (HOP-62) was 34.4 µM (inactive), the GI50 (LOX IMVI) was 16.6 µM (inactive) and the GI50 (MCF7) was 19 µM (inactive). For the same molecule, the GI50 (MDA-N) was 12.4 µM (inactive), the GI50 (MOLT-4) was 35.6 µM (inactive) and the GI50 (Malme-3M) was 19 µM (inactive). For the same molecule, the GI50 (NCI-H522) was 23.9 µM (inactive), the GI50 (OVCAR-3) was 28.6 µM (inactive) and the GI50 (OVCAR-5) was 21.2 µM (inactive). The GI50 (SF-295) was 32.4 µM (inactive), the GI50 (SN12C) was 21.9 µM (inactive) and the GI50 (SR) was 5.21 µM (inactive).

For `O=c1[nH]ncc2[nH]c3c(c12)CCCc1ccccc1-3`, the GI50 (A498) was 27.6 µM (inactive), the GI50 (BT-549) was 32.9 µM (inactive) and the GI50 (COLO 205) was 20.5 µM (inactive). The GI50 (DU-145) was 54.5 µM (inactive), the GI50 (HCC 2998) was 27.9 µM (inactive) and the GI50 (HCT-116) was 27.4 µM (inactive). For the same molecule, the GI50 (HCT-15) was 28.5 µM, the GI50 (HOP-62) was 67 µM (inactive) and the GI50 (HOP-92) was 72.3 µM (inactive). The GI50 (LOX IMVI) was 44.3 µM (inactive), the GI50 (MCF7) was 29.4 µM (inactive) and the GI50 (MDA-N) was 29.6 µM (inactive). The GI50 (MOLT-4) was 17.5 µM (inactive), the GI50 (Malme-3M) was 96.2 µM (inactive) and the GI50 (NCI-H522) was 48.9 µM (inactive). The GI50 (OVCAR-3) was 48.4 µM (inactive), the GI50 (OVCAR-5) was 43.4 µM (inactive) and the GI50 (SF-295) was 32.5 µM (inactive). For the same molecule, the GI50 (SN12C) was 63.1 µM (inactive).

For `C1=N\c2ccc(cc2)-c2ccc(cc2)/N=C\c2ccc(cc2)OCc2cccc(n2)COc2ccc/1cc2`, the GI50 (A498) was > 100 µM (inactive), the GI50 (BT-549) was > 100 µM (inactive) and the GI50 (COLO 205) was > 100 µM (inactive). The GI50 (DU-145) was > 100 µM (inactive), the GI50 (HCT-116) was > 100 µM (inactive) and the GI50 (HCT-15) was over 100 µM. The GI50 (HOP-62) was 27.3 µM (inactive), the GI50 (HOP-92) was > 100 µM (inactive) and the GI50 (MCF7) was > 100 µM (inactive). For the same molecule, the GI50 (MDA-N) was > 100 µM (inactive), the GI50 (MOLT-4) was 85.3 µM (inactive) and the GI50 (Malme-3M) was 33 µM (inactive). The GI50 (NCI-H522) was 34.5 µM (inactive), the GI50 (OVCAR-3) was > 100 µM (inactive) and the GI50 (OVCAR-5) was > 100 µM (inactive). For the same molecule, the GI50 (SF-295) was 79.4 µM (inactive), the GI50 (SN12C) was > 100 µM (inactive) and the GI50 (SR) was > 100 µM (inactive).

For `c1cc(NNc2cccc(-c3nnn[nH]3)c2)cc(-c2nnn[nH]2)c1`, the GI50 (A498) was > 100 µM (inactive), the GI50 (BT-549) was > 100 µM (inactive) and the GI50 (COLO 205) was > 100 µM (inactive). For the same molecule, the GI50 (DU-145) was > 100 µM (inactive), the GI50 (HCT-116) was > 100 µM (inactive) and the GI50 (HCT-15) was over 100 µM. For the same molecule, the GI50 (HOP-62) was > 100 µM (inactive), the GI50 (HOP-92) was > 100 µM (inactive) and the GI50 (LOX IMVI) was > 100 µM (inactive). For the same molecule, the GI50 (MCF7) was > 100 µM (inactive), the GI50 (MDA-N) was > 100 µM (inactive) and the GI50 (Malme-3M) was > 100 µM (inactive). The GI50 (NCI-H522) was > 100 µM (inactive), the GI50 (OVCAR-3) was > 100 µM (inactive) and the GI50 (OVCAR-5) was > 100 µM (inactive). The GI50 (SF-295) was > 100 µM (inactive) and the GI50 (SN12C) was > 100 µM (inactive).

In the case of `CC(=O)[C@]1(O)Cc2c(O)c3c(c(O)c2C(OC2OC(C)C(O)C(O)C2F)C1)C(=O)c1ccccc1C3=O` (some centres not stated), the GI50 (A498) is reported as 0.0581 µM (active), the GI50 (BT-549) is reported as 0.358 µM (active) and the GI50 (COLO 205) is reported as 0.259 µM (active). The GI50 (DU-145) was 0.0502 µM (active), the GI50 (HCC 2998) was 0.208 µM (active) and the GI50 (HCT-116) was 0.0565 µM (active). The GI50 (HCT-15) was 0.0516 µM, the GI50 (HOP-62) was < 0.0189 µM (active) and the GI50 (HOP-92) was 0.055 µM (active). For the same molecule, the GI50 (LOX IMVI) was 0.0713 µM (active), the GI50 (MCF7) was < 0.01 µM (active) and the GI50 (MDA-N) was 0.475 µM (active). The GI50 (MOLT-4) was < 0.01 µM (active), the GI50 (Malme-3M) was 0.208 µM (active) and the GI50 (NCI-H522) was 0.316 µM (active). The GI50 (OVCAR-3) was 0.568 µM (active), the GI50 (OVCAR-5) was 0.125 µM (active) and the GI50 (SF-295) was < 0.014 µM (active). The GI50 (SN12C) was 0.0247 µM (active).

`Cc1nn(C(=O)c2ccc(Cl)cc2)c2c1C(c1ccc(Cl)cc1)SC(=N)N2` (configuration not stated) was tested, and the GI50 (BT-549) was > 10 µM (inactive), the GI50 (COLO 205) was > 10 µM (inactive) and the GI50 (DU-145) was > 10 µM (inactive). For the same molecule, the GI50 (HCC 2998) was > 10 µM (inactive), the GI50 (HCT-116) was > 10 µM (inactive) and the GI50 (HCT-15) was over 10 µM. For the same molecule, the GI50 (HOP-62) was > 10 µM (inactive), the GI50 (HOP-92) was > 10 µM (inactive) and the GI50 (LOX IMVI) was > 10 µM (inactive). The GI50 (MCF7) was > 10 µM (inactive), the GI50 (MDA-N) was > 10 µM (inactive) and the GI50 (MOLT-4) was > 10 µM (inactive). The GI50 (Malme-3M) was > 10 µM (inactive), the GI50 (NCI-H522) was > 10 µM (inactive) and the GI50 (OVCAR-3) was > 10 µM (inactive). The GI50 (OVCAR-5) was > 10 µM (inactive), the GI50 (SF-295) was > 10 µM (inactive) and the GI50 (SN12C) was > 10 µM (inactive). The GI50 (SR) was > 10 µM (inactive).

`COC(=O)[C@]12CSC[C@H]1C[C@H](c1ccccc1OC)N2` was tested, and the GI50 (A498) was > 100 µM (inactive), the GI50 (BT-549) was > 100 µM (inactive) and the GI50 (COLO 205) was > 100 µM (inactive). For the same molecule, the GI50 (DU-145) was > 100 µM (inactive), the GI50 (HCC 2998) was > 100 µM (inactive) and the GI50 (HCT-116) was > 100 µM (inactive). For the same molecule, the GI50 (HCT-15) was over 100 µM, the GI50 (HOP-62) was > 100 µM (inactive) and the GI50 (LOX IMVI) was > 100 µM (inactive). The GI50 (MCF7) was > 100 µM (inactive), the GI50 (MDA-N) was > 100 µM (inactive) and the GI50 (MOLT-4) was > 100 µM (inactive). The GI50 (Malme-3M) was > 100 µM (inactive), the GI50 (NCI-H522) was > 100 µM (inactive) and the GI50 (OVCAR-3) was > 100 µM (inactive). The GI50 (OVCAR-5) was > 100 µM (inactive), the GI50 (SF-295) was > 100 µM (inactive) and the GI50 (SN12C) was > 100 µM (inactive). The GI50 (SR) was > 100 µM (inactive).
